Like-named read-outs stand apart in the source and are kept apart here. A value given as a limit tells only on which side of the number the result lay.

The subject of one data set is A431 (EGFR-WT) cells. Nature of the data set: Inhibitory activity on proliferation of A431 (EGFR-WT) cells (CTG, 72 h). The data set is classed as cell-based. Conditions: Homo sapiens, A-431. A digest of the protocol:
(§1)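 Cells plated at 1000/well (NCI-H1975, RPMI1640+10% FBS) or 3000/well (A431, DMEM+10% FBS), dosed next day with compounds (0.1% DMSO final) for 72 h at 37 °C, 5% CO2. Viability by CTG luminescence, normalised to vehicle control; IC50 from nonlinear-regression dose-survival curves.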

For data set [1], the target named is T1, EGFR protein in NCI-H1975 EGFR-L858R-T790M-C797S cells (Homo sapiens, UniProt P00533, C797S/L858R/T790M).
T1 construct: expressed in transfected cells; host or cells: NCI-H1975 EGFR-L858R-T790M-C797S (kept under hygromycin selection)
The experiment in a line: Degradation activity on EGFR protein in NCI-H1975 EGFR-L858R-T790M-C797S cells, Method I (western blot, 72 h). The class given is cell-based. Conditions: 72 h incubation, EGFR protein relative to DMSO control. As to the method:
Protein sample preparation: NCI-H1975 EGFR-L858R-T790M-C797S cells were cultured in an incubator at 37° C. with 5% CO2, and the culture medium was RPMI1640+10% FBS+100 μg/mL hygromycin. The cells in the logarithmic phase were collected, and the cell suspension was adjusted to an appropriate concentration with a hygromycin-free culture medium, plated on a 6-well plate at a density of 200000 cells/well and a volume of 2 mL, and cultured overnight in an incubator at 37° C. with 5% CO2. The next day, the compounds at different concentrations were added. DMSO control wells were provided, wherein the concentration of DMSO in all wells was 0.1%. The 6-well plate was cultured in an incubator at 37° C. with 5% CO2 for 72 h, and then 30 μL of RIPA lysates (Beyotime, Cat. P0013B) containing protease inhibitors (Beyotime, Cat. P0013B) were added. The mixtures were lysed on ice for 30 min. Centrifugation was carried out at 13000 rpm/min at 4° C. for 20 min to collect protein supernatant samples, and protein quantification was performed by the BCA method. Samples for western blot detection were prepared.
Western blot detection: 20 μg of protein samples were added to each well, subjected to polyacrylamide gel electrophoresis and transferred to a membrane, and then diluted anti-EGFR (CST, Cat. 4267S) and […] (Kangchen, Cat. KC-5G4) antibodies were added and incubated overnight at 4° C. After washing the membrane, diluted goat anti-rabbit (Licor, Cat. 926-32211) and goat anti-mouse (Licor, Cat. 926-68070) antibodies were added and incubated in the dark for 45 min. Scanning and detection at wavelengths of 700 nm and 800 nm were performed with a far-infrared imaging system (Odyssey).
According to formula (3), the expression level of EGFR protein in the cells relative to the DMSO control group was calculated after incubation with different concentrations of compounds. wherein EGFRcompound was the fluorescence value of EGFR protein after incubation with compounds, and EGFRvehicle was the fluorescence value of EGFR protein in the DMSO control group. Using the Origin 9.2 software, the drug concentration DC50 values when the expression level of EGFR protein was 50% relative to the DMSO control group were calculated.
In general terms: Immunoblotting shows a protein as a band on a membrane.

The subject of data set [2] is NCI-H1975 EGFR-L858R-T790M-C797S cells. Nature of the data set: Inhibitory activity on proliferation of NCI-H1975 EGFR-L858R-T790M-C797S cells (CellTiter-Glo, 72 h). The class given is cell-based. Conditions: Homo sapiens. The procedure:
NCI-H1975 EGFR-L858R-T790M-C797S cells were cultured in an incubator at 37° C. with 5% CO2, and the culture medium was RPMI1640+10% FBS+100 μg/mL hygromycin. The cells in the logarithmic phase were collected, and the cell suspension was adjusted to an appropriate concentration with a hygromycin-free culture medium, and then plated on a 96-well plate at a density of 1500 cells/well and a volume of 90 μL. 10 μL of the compounds at different concentrations were added, and a vehicle control group (cells plus DMSO) was provided, wherein the concentration of DMSO was 0.1%. The cell culture plate was cultured in an incubator at 37° C. with 5% CO2 for 72 hours. After the incubation was completed, according to operation instructions for a CellTiter-Glo kit (Promega, G7572), 50 μL of CTG solution, which was already pre-melted and equilibrated to room temperature, was added to each well, and the mixtures were uniformly mixed for 2 min using a microplate shaker. The plate was placed at room temperature for 10 min, and then […] signal values were measured using a microplate reader (Envision 2104). […] was processed based on formula (2), and using the GraphPad Prism 5.0 software and nonlinear regression model, S-shaped dose-survival curves were plotted, and IC50 values were calculated. wherein Vsample was the readout of the drug-treated group, and Vvehicle control was the readout of the control group.

The test system of data set [3] is NCI-H1975 (EGFR-L858R-T790M) cells. Nature of the data set: Inhibitory activity on proliferation of NCI-H1975 (EGFR-L858R-T790M) cells (CTG, 72 h). The data set is classed as cell-based. Conditions: Homo sapiens. A digest of the protocol: as §1
Data set [4] is described as follows: Pharmacokinetic test in mice. The data set is classed as in vivo. The settings on record: male, ICR, mouse, po, administration i.g. (10 mg/kg), plasma. A digest of the protocol:
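Male ICR mice (20-25 g), fasted 12-14 h before dosing and fed 4 h after, received a single intravenous or intragastric dose. Orbital plasma sampled from 0 to 24 h (5 min-24 h points); LC-MS/MS quantitation for PK parameters and bioavailability.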

Where [5] appears, read: read-out: IC50 (value in brackets).

T1 sequence (P00533 25-1210 T790M/C797S/L858R): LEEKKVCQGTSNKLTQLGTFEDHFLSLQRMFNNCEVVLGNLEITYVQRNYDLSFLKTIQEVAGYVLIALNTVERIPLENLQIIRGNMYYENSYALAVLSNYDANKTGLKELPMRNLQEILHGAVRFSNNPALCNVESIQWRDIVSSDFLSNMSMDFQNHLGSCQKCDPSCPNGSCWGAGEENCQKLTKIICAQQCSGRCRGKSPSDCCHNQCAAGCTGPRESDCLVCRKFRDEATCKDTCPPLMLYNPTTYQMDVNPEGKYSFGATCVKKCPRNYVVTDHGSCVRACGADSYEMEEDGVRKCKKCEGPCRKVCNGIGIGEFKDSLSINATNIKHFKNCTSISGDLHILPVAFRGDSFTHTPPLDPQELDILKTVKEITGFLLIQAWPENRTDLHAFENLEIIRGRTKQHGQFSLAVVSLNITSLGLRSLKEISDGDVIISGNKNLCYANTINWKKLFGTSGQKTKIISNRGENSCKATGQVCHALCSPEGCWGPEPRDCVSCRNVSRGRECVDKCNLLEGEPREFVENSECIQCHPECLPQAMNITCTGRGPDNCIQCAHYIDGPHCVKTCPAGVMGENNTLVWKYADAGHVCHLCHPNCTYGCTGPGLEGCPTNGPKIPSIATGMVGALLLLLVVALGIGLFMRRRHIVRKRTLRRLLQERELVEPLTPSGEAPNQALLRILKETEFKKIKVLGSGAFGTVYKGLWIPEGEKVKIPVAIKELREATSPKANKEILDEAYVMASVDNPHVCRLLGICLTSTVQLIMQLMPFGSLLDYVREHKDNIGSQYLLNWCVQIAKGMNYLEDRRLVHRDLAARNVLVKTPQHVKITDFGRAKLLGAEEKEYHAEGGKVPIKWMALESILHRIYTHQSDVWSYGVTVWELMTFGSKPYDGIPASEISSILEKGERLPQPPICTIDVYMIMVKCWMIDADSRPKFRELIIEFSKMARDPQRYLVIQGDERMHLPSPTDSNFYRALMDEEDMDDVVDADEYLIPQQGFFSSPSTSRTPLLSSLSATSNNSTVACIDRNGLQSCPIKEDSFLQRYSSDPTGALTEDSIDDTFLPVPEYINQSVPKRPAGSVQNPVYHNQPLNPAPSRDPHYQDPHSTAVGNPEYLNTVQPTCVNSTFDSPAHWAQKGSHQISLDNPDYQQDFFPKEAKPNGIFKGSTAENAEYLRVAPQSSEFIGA

Turning to `COc1cc(N2CCC(N3CCN(CC4CCN(c5ccc6c(c5)C(=O)N(C5CCC(=O)NC5=O)C6=O)CC4)CC3)CC2)c(-c2cnn(C)c2)cc1Nc1ncc(Br)c(Nc2ccc(-c3ccccc3F)cc2P(C)(C)=O)n1` (centres unmarked) [Compound 54, 5-(4-((4-(1-(4-((5-bromo-4-((3-(dimethylphosphoryl)-2′-fluoro-[1,1′-biphenyl]-4-yl)amino)pyrimidin-2-yl)amino)-5-methoxy-2-(1-methyl-1H-pyrazol-4-yl)phenyl)piperidin-4-yl)piperazin-1-yl)methyl)piperidin-1-yl)-2-(2,6-dioxopiperidin-3-yl)isoindoline-1,3-dione], the IC50 is ≥ 10000 nM in the data set on A431 (EGFR-WT) cells; < 200 nM in data set [2] (read-out: IC50 (class symbol)); 56 nM in data set [2] (read-out: IC50 (value)); < 100 nM in data set [3] (read-out: IC50 (class symbol)); 69 nM in data set [3] (setting [5]). Moreover, the DC50 in data set [1] was < 100 nM. In addition, in data set [4], the area under the curve AUC(0-t) worked out at 29800 ng·h/mL.
With `COc1cc(N2CCC(N3CCN(CC4CCN(c5ccc6c(c5)C(=O)N(C5CCC(=O)NC5=O)C6=O)CC4)CC3)CC2)c(C2CC2)cc1Nc1ncc(Br)c(Nc2ccc3nccnc3c2P(C)(C)=O)n1` (centres unmarked) [Compound 2, 5-(4-((4-(1-(4-((5-bromo-4-((5-(dimethylphosphoryl)quinoxalin-6-yl)amino)pyrimidin-2-yl)amino)-2-cyclopropyl-5-methoxyphenyl)piperidin-4-yl)piperazin-1-yl)methyl)piperidin-1-yl)-2-(2,6-dioxopiperidin-3-yl)isoindoline-1,3-dione], the concentration for half-maximal inhibition (IC50) is ≥ 10000 nM with A431 (EGFR-WT) cells; 200 to 500 nM in data set [2] (read-out: IC50 (class symbol)); 299 nM in data set [2] (read-out: IC50 (value)); 100 to 500 nM in data set [3] (read-out: IC50 (class symbol)); 151 nM in data set [3] (setting [5]). Further, the 50% degradation concentration (DC50) in data set [1] was < 100 nM.
As for `COc1cc(N2CCC(CN3CCC4(CC3)CCN(c3ccc5c(c3)C(=O)N(C3CCC(=O)NC3=O)C5=O)CC4)CC2)c(-c2cnn(C)c2)cc1Nc1ncc(Br)c(Nc2ccc(-c3ccccc3)cc2P(C)(C)=O)n1` (centres unmarked) [Compound 37, 5-(9-((1-(4-((5-bromo-4-((3-(dimethylphosphoryl)-[1,1′-biphenyl]-4-yl)amino)pyrimidin-2-yl)amino)-5-methoxy-2-(1-methyl-1H-pyrazol-4-yl)phenyl)piperidin-4-yl)methyl)-3,9-diazaspiro[5.5]undecan-3-yl)-2-(2,6-dioxopiperidin-3-yl)isoindoline-1,3-dione], the half-inhibitory concentration (IC50) was ≥ 10000 nM in the data set with A431 (EGFR-WT) cells; < 200 nM in data set [2] (read-out: IC50 (class symbol)); 32 nM in data set [2] (read-out: IC50 (value)); < 100 nM in data set [3] (read-out: IC50 (class symbol)); 38 nM in data set [3] (setting [5]). The 50% degradation concentration (DC50) in data set [1] was < 100 nM. Further, the AUC(0-t) in data set [4] came out at 21700 ng·h/mL.
With `COc1cc(N2CCC3(CCN(CC4CCN(c5ccc6c(c5)C(=O)N(C5CCC(=O)NC5=O)C6=O)CC4)CC3)CC2)c(-c2cnn(C)c2)cc1Nc1ncc(Cl)c(Nc2ccc(-c3ccccc3)cc2P(C)(C)=O)n1` (centres unmarked) [Compound 59, 5-(4-((9-(4-((5-chloro-4-((3-(dimethylphosphoryl)-[1,1′-biphenyl]-4-yl)amino)pyrimidin-2-yl)amino)-5-methoxy-2-(1-methyl-1H-pyrazol-4-yl)phenyl)-3,9-diazaspiro[5.5]undecan-3-yl)methyl)piperidin-1-yl)-2-(2,6-dioxopiperidin-3-yl)isoindoline-1,3-dione], the IC50 was ≥ 10000 nM with A431 (EGFR-WT) cells, < 100 nM in data set [3] (read-out: IC50 (class symbol)) and 92 nM in data set [3] (setting [5]). For the same compound, the DC50 in data set [1] is < 100 nM. In data set [4], this compound displayed an AUC(0-t) of 4460 ng·h/mL.
As to `COc1cc(N2CCC(N3CCC4(CCCN(c5ccc6c(c5)C(=O)N(C5CCC(=O)NC5=O)C6=O)C4)CC3)CC2)c(-c2cnn(C)c2)cc1Nc1ncc(Br)c(Nc2ccc(-c3ccccc3)cc2P(C)(C)=O)n1` (centres unmarked) [Compound 62, 5-(9-(1-(4-((5-bromo-4-((3-(dimethylphosphoryl)-[1,1′-biphenyl]-4-yl)amino)pyrimidin-2-yl)amino)-5-methoxy-2-(1-methyl-1H-pyrazol-4-yl)phenyl)piperidin-4-yl)-2,9-diazaspiro[5.5]undecan-2-yl)-2-(2,6-dioxopiperidin-3-yl)isoindoline-1,3-dione], the 50% inhibitory concentration (IC50) in the data set on A431 (EGFR-WT) cells is ≥ 10000 nM; in data set [3] (read-out: IC50 (class symbol)) it was < 100 nM; in data set [3] (setting [5]), 28 nM. For the same compound, in data set [1], the DC50 is < 100 nM. The same compound registered an area under the curve AUC(0-t) in data set [4] of 2310 ng·h/mL.
`COc1cc(N2CCC3(CCN(CC4CCN(c5ccc6c(c5)C(=O)N(C5CCC(=O)NC5=O)C6=O)CC4)CC3)CC2)c(-c2cnn(C)c2)cc1Nc1ncc(Br)c(Nc2ccc(-c3ccccc3)cc2P(C)(C)=O)n1` (centres unmarked) [Compound 57, 5-(4-((9-(4-((5-bromo-4-((3-(dimethylphosphoryl)-[1,1′-biphenyl]-4-yl)amino)pyrimidin-2-yl)amino)-5-methoxy-2-(1-methyl-1H-pyrazol-4-yl)phenyl)-3,9-diazaspiro[5.5]undecan-3-yl)methyl)piperidin-1-yl)-2-(2,6-dioxopiperidin-3-yl)isoindoline-1,3-dione]: the IC50 in the data set with A431 (EGFR-WT) cells is ≥ 10000 nM; in data set [2] (read-out: IC50 (class symbol)), < 200 nM; in data set [2] (read-out: IC50 (value)), 65 nM; in data set [3] (read-out: IC50 (class symbol)), < 100 nM; in data set [3] (setting [5]) it was 21 nM. Moreover, in data set [1], the DC50 is < 100 nM.
Take `COc1cc(N2CCC(N3CCN(CC4CCN(c5ccc6c(c5)C(=O)N(C5CCC(=O)NC5=O)C6=O)CC4)CC3)CC2)c(-c2cnn(C)c2)cc1Nc1ncc(Br)c(Nc2ccc(-c3ccccc3)cc2P(C)(C)=O)n1` (centres unmarked) [Trifluoroacetate of compound 23, 5-(4-((4-(1-(4-((5-bromo-4-((3-(dimethylphosphoryl)-[1,1′-biphenyl]-4-yl)amino)pyrimidin-2-yl)amino)-5-methoxy-2-(1-methyl-1H-pyrazol-4-yl)phenyl)piperidin-4-yl)piperazin-1-yl)methyl)piperidin-1-yl)-2-(2,6-dioxopiperidin-3-yl)isoindoline-1,3-dione]: the half-inhibitory concentration (IC50) in the data set on A431 (EGFR-WT) cells was ≥ 10000 nM; in data set [2] (read-out: IC50 (class symbol)), < 200 nM; in data set [2] (read-out: IC50 (value)), 83 nM; in data set [3] (read-out: IC50 (class symbol)) it was < 100 nM; in data set [3] (setting [5]) it was 41 nM. In data set [1], the DC50 is < 100 nM.
Turning to `COc1cc(N2CCC(N3CCC4(CCCN(c5ccc6c(c5)C(=O)N(C5CCC(=O)NC5=O)C6=O)C4)CC3)CC2)c(-c2cnn(C)c2)cc1Nc1ncc(Cl)c(Nc2ccc(-c3ccccc3)cc2P(C)(C)=O)n1` (centres unmarked) [Compound 60, 5-(9-(1-(4-((5-chloro-4-((3-(dimethylphosphoryl)-[1,1′-biphenyl]-4-yl)amino)pyrimidin-2-yl)amino)-5-methoxy-2-(1-methyl-1H-pyrazol-4-yl)phenyl)piperidin-4-yl)-2,9-diazaspiro [5.5]undecan-2-yl)-2-(2,6-dioxopiperidin-3-yl)isoindoline-1,3-dione], the IC50 was ≥ 10000 nM in the data set on A431 (EGFR-WT) cells, < 100 nM in data set [3] (read-out: IC50 (class symbol)) and 34 nM in data set [3] (setting [5]). In addition, the DC50 in data set [1] was < 100 nM. This compound registered an AUC(0-t) in data set [4] of 3200 ng·h/mL.

What is called IC50 is the concentration needed to halve the response being measured. The DC50 is the concentration giving 50% degradation. Broadly, the AUC(0-t) is exposure summed from dosing to a finite time, without extrapolation to infinity.

The record behind these values is patent US20240269298A1, “PHOSPHONYL DERIVATIVE, AND COMPOSITION AND PHARMACEUTICAL APPLICATION THEREOF” (XIZANG HAISCO PHARMACEUTICAL CO., LTD., priority 2021, published 2024).
